Measured values published in patent US7649092B2, “Urea derivatives as calcium channel blockers” (Neuromed Pharmaceuticals Ltd., priority 2004, dated 2010).
Read-outs that look alike come from different tables or passages of the source.

Tests used:
[1] = test system: SNL rats, tactile allodynia; assay: Spinal nerve ligation (SNL) model of neuropathic pain, tactile allodynia (von Frey filaments); format: in vivo; conditions: rat SNL, 30 mg/kg orally in propylene glycol
Text: (§1) Spinal nerve ligation (SNL) injury was induced using the procedure of Kim and Chung, (Kim, S. H., et al., Pain (1992) 50:355-363) in male Sprague-Dawley rats (Harlan; Indianapolis, Ind.) weighing 200 to 300 grams. Anesthesia was induced with 2% halothane in O2 at 2 L/min and maintained with 0.5% halothane in O2. After surgical preparation of the rats and exposure of the dorsal vertebral column from L4 to S2, the L5 and L6 spinal nerves were tightly ligated distal to the dorsal root ganglion using 4-0 silk suture. The incision was closed, and the animals were allowed to recover for 5 days. […] Sham control rats underwent the same operation and handling as the experimental animals, but without SNL.
The assessment of tactile allodynia consisted of measuring the withdrawal threshold of the paw ipsilateral to the site of nerve injury in response to probing with a series of calibrated von Frey filaments. Each filament was applied perpendicularly to the plantar surface of the ligated paw of rats kept in suspended wire-mesh cages. Measurements were taken before and after administration of drug or vehicle. Withdrawal threshold was determined by sequentially increasing and decreasing the stimulus strength (“up and down” method), analyzed using a Dixon non-parametric test (Chaplan, S. R., et al., J Pharmacol Exp Ther (1994) 269:1117-1123), and expressed as the mean withdrawal threshold.
(§2) Compound 1 was administered orally in propylene glycol solution at a dose of 30 mg/kg. The percent activity was calculated for block of tactile allodynia, thermal hyperalgesia and analgesia.

rat formalin model = assay: Formalin-induced pain model (paw flinches); format: in vivo; conditions: 30 mg/kg IP, 10 min before formalin, ±SEM, saline control=100%
Protocol: The effects of intrathecally delivered compounds of the invention on the rat formalin model were measured. The compounds were reconstituted to stock solutions of approximately 10 mg/ml in propylene glycol. Eight Holtzman male rats of 275-375 g size were randomly selected per test article.
The following study groups were used, with test article, vehicle control (propylene glycol) and saline delivered intraperitoneally (IP):
Prior to initiation of drug delivery baseline behavioral and testing data were taken.
On the morning of testing, a small metal band (0.5 g) was loosely placed around the right hind paw. The rat was placed in a cylindrical Plexiglas chamber for adaptation a minimum of 30 minutes. Test Article or Vehicle Control Article was administered 10 minutes prior to formalin injection (50 μl of 5% formalin) into the dorsal surface of the right hind paw of the rat. The animal was then placed into the chamber of the automated formalin apparatus where movement of the formalin injected paw was monitored and the number of paw flinches tallied by minute over the next 60 minutes (Malmberg, A. B., et al., Anesthesiology (1993) 79:270-281).
Results are presented as Maximum Possible Effect ±SEM, where saline control=100%.

[2] = biological target: T1, human DiG T-type channels (Homo sapiens, UniProt O43497); assay: T-type calcium channel block, whole-cell patch clamp in HEK cell lines; format: cell-based
T1 construct: expressed in transfected cells
T1 sequence (O43497 whole entry): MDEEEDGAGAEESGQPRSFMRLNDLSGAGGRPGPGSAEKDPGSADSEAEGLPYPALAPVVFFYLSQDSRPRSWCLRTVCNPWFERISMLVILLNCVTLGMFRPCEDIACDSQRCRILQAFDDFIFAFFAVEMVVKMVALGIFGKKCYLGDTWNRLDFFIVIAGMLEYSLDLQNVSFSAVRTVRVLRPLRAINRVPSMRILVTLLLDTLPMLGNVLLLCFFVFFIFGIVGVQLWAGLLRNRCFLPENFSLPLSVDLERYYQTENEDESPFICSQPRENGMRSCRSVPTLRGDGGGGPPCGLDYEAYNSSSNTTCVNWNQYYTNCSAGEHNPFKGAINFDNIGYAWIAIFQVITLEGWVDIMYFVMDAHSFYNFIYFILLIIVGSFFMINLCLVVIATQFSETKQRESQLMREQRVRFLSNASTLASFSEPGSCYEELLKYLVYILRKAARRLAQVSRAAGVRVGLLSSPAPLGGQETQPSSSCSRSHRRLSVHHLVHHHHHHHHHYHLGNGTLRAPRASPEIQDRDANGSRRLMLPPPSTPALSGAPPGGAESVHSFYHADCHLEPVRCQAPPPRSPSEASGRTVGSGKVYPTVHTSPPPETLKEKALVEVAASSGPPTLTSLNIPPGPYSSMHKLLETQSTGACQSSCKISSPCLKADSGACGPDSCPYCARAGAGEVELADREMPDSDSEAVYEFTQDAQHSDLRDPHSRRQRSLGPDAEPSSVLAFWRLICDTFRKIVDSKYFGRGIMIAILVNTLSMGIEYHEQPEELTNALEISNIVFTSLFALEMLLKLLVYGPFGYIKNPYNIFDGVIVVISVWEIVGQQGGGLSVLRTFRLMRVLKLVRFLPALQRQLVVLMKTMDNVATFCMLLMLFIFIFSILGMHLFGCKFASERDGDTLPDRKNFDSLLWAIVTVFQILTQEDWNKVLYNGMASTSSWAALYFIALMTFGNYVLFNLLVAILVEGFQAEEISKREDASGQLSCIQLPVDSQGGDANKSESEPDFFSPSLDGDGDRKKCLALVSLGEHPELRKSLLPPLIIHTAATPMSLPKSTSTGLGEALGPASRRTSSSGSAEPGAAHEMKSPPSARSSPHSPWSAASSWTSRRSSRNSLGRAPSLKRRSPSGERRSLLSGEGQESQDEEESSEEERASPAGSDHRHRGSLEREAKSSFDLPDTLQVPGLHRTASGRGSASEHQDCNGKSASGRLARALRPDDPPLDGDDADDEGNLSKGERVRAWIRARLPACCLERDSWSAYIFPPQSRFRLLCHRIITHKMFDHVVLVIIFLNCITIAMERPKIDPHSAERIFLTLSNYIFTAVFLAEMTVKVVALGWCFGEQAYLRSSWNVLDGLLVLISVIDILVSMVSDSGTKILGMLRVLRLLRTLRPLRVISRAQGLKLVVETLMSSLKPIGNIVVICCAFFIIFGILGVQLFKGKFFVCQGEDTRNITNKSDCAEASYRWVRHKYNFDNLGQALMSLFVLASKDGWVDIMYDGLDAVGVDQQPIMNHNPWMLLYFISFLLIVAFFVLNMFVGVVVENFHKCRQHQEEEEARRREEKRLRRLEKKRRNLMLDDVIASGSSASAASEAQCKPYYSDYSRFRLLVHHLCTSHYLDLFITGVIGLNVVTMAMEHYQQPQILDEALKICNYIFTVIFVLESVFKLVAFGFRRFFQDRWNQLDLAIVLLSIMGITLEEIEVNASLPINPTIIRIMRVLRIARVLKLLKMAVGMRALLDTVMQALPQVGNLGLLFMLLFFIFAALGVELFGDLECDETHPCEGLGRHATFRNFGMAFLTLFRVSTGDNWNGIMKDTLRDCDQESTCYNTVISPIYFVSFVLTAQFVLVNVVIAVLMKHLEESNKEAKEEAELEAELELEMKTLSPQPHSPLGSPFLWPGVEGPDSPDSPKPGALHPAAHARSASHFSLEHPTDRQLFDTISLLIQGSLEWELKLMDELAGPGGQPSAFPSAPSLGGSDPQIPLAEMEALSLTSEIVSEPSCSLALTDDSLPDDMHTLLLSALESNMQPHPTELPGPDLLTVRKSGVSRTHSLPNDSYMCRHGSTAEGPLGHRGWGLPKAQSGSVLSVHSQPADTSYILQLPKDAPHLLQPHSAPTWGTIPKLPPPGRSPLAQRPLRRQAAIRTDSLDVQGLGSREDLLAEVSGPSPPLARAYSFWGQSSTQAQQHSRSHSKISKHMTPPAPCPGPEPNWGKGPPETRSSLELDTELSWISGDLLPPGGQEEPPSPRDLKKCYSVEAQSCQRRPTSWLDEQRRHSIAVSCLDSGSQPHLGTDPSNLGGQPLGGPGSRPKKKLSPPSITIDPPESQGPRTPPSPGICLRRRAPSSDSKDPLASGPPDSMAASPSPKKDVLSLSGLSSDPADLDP
Protocol: Standard patch-clamp techniques were employed to identify blockers of T-type currents. Briefly, previously described HEK cell lines stably expressing human DiG T-type channels were used for all the recordings (passage #: 4-20, 37° C., 5% CO2). To obtain T-type currents, plastic dishes containing semi-confluent cells were positioned on the stage of a ZEISS AXIOVERT S100 microscope after replacing the culture medium with external solution (see below). Whole-cell patches were obtained using pipettes (borosilicate glass with filament, O.D.: 1.5 mm, I.D.: 0.86 mm, 10 cm length), fabricated on a SUTTER P-97 puller with resistance values of ˜5 MΩ (see below for internal solution).
In the non-inactivating protocol, the holding potential is set at −110 mV and with a pre-pulse at −100 mV for 1 second prior to the test pulse at −40 mV for 50 ms. […]
Test compounds were dissolved in external solution, 0.1-0.01% DMSO. After ˜10 min rest, they were applied by gravity close to the cell using a WPI microfil tubing. The “non-inactivated” pre-pulse was used to examine the resting block of a compound. The “inactivated” protocol was employed to study voltage-dependent block. However, the initial data shown below were mainly obtained using the non-inactivated protocol only. IC50 values are shown for various compounds of the invention in Table 5.

[3] = test system: SNL rats, thermal hyperalgesia / anti nociception; assay: Spinal nerve ligation (SNL) model of neuropathic pain, paw-withdrawal latency to thermal stimulus (Hargreaves); format: in vivo; conditions: rat SNL, 30 mg/kg orally in propylene glycol
Text: as §1
The method of Hargreaves and colleagues (Hargreaves, K., et al., Pain (1988) 32:77-88) was employed to assess paw-withdrawal latency to a thermal nociceptive stimulus. Rats were allowed to acclimate within a Plexiglas enclosure on a clear glass plate maintained at 30° C. A radiant heat source (i.e., high intensity projector lamp) was activated with a timer and focused onto the plantar surface of the affected paw of nerve-injured or carrageenan-injected rats. Paw-withdrawal latency was determined by a photocell that halted both lamp and timer when the paw was withdrawn. The latency to withdrawal of the paw from the radiant heat source was determined prior to carrageenan or […], 3 hours after carrageenan or 7 days after L5/L6 SNL but before drug and after drug administration. A maximal cut-off of 40 seconds was employed to prevent tissue damage. Paw withdrawal latencies were thus determined to the nearest 0.1 second. Reversal of thermal hyperalgesia was indicated by a return of the paw withdrawal latencies to the pre-treatment baseline latencies (i.e., 21 seconds). Anti nociception was indicated by a significant (p<0.05) increase in paw withdrawal latency above this baseline. Data were converted to % anti hyperalgesia or % anti nociception by the formula: (100×(test latency−baseline latency)/(cut-off−baseline latency) where cut-off was 21 seconds for determining anti hyperalgesia and 40 seconds for determining anti nociception.
as §2

[4] = biological target: T2, rat brain N-type calcium channel subunits (α1B+α2δ+β1b cDNA subunits) (Rattus norvegicus, UniProt Q02294); assay: N-type calcium channel block, whole cell patch clamp in HEK 293 cells; format: cell-based; conditions: holding potential −80 mV to +10 mV
T2 construct: expressed in transfected cells
Protocol: N-type calcium channel blocking activity was assayed in human embryonic kidney cells, HEK 293, stably transfected with the rat brain N-type calcium channel subunits (α1B+α2δ+β1b cDNA subunits). Alternatively, N-type calcium channels (α1B+α2δ+β1b cDNA subunits), L-type channels (α1C+α2δ+β1b cDNA subunits) and P/Q-type channels (α1A+α2δ+β1b cDNA subunits) were transiently expressed in HEK 293 cells. Briefly, cells were cultured in Dulbecco's modified eagle medium (DMEM) supplemented with 10% fetal bovine serum, 200 U/ml penicillin and 0.2 mg/ml streptomycin at 37° C. with 5% CO2. At 85% confluency cells were split with 0.25% trypsin/1 mM EDTA and plated at 10% confluency on glass coverslips. At 12 hours the medium was replaced and the cells transiently transfected using a standard calcium phosphate protocol and the appropriate calcium channel cDNA's. Fresh DMEM was supplied and the cells transferred to 28° C./5% CO2. Cells were incubated for 1 to 2 days prior to whole cell recording.
Whole cell patch clamp experiments were performed using an Axopatch 200B amplifier (Axon Instruments, Burlingame, Calif.) linked to a personal computer equipped with pCLAMP software. The external and internal recording solutions contained, respectively, 5 mM BaCl2, 10 mM MgCl2, 10 mM HEPES, 40 mM TEAC1, 10 mM glucose, 87.5 mM CsCl (pH 7.2) and 108 mM CsMS, 4 mM MgCl2, 9 mM EGTA, 9 mM HEPES (pH 7.2). Currents were typically elicited from a holding potential of −80 mV to +10 mV using Clampex software (Axon Instruments). Typically, currents were first elicited with low frequency stimulation (0.067 Hz) and allowed to stabilize prior to application of the compounds. The compounds were then applied during the low frequency pulse trains for two to three minutes to assess tonic block, and subsequently the pulse frequency was increased to 0.2 Hz to assess frequency dependent block. Data were analyzed using Clampfit (Axon Instruments) and SigmaPlot 4.0 (Jandel Scientific).

[5] = test system: T-type over L-type channels; conditions: literature (Heady et al. 2001); cited from earlier work

For `O=C(NC(c1ccccc1)c1ccccc1)N1CCN(C(c2ccccc2)c2ccccc2)CC1` [Compound 1, 4-Benzhydryl-piperazine-1-carboxylic acid benzhydryl-amide], the “Tactile Allodynia (% Activity)” value ([1]; 30 min) was 35.77 ± 10.38 % Activity, the “Tactile Allodynia (% Activity)” value ([1]; 60 min) was 80.89 ± 13.30 % Activity and the “Tactile Allodynia (% Activity)” value ([1]; 90 min) was 35.49 ± 9.01 % Activity. The “Tactile Allodynia (% Activity)” value ([1]; 120 min) was 19.61 ± 6.78 % Activity, the “Tactile Allodynia (% Activity)” value ([1]; 150 min) was 1.98 ± 1.42 % Activity and the “Phase I (% MPE)” value (rat formalin model) was 58 ± 15 % MPE. For the same molecule, the “Phase II Total (% MPE)” value (rat formalin model) was 75 ± 12 % MPE, the “Phase IIA (% MPE)” value (rat formalin model) was 65 ± 12 % MPE and the “Phase IIB (% MPE)” value (rat formalin model) was 99 ± 15 % MPE. For the same molecule, the IC50 ([2]; inactivation protocol, @ −80 mV, read-out: IC50 @ −80 mV) was 231 nM, the IC50 ([2]; non-inactivating protocol, pre-pulse −100 mV, test pulse −40 mV, read-out: IC50 @ −100 mV) was 583 nM and the “Analgesia (% Activity)” value ([3]; 30 min) was 82.47 ± 10.11 % Activity. For the same molecule, the “Thermal Hyperalgesia (% Activity)” value ([3]; 30 min) was 46.98 ± 15.09 % Activity, the “Analgesia (% Activity)” value ([3]; 60 min) was 88.95 ± 8.30 % Activity and the “Thermal Hyperalgesia (% Activity)” value ([3]; 60 min) was 97.86 ± 2.14 % Activity. For the same molecule, the “Analgesia (% Activity)” value ([3]; 90 min) was 9.02 ± 5.66 % Activity, the “Thermal Hyperalgesia (% Activity)” value ([3]; 90 min) was 49.07 ± 10.17 % Activity and the “Analgesia (% Activity)” value ([3]; 120 min) was 0.00 ± 0.00 % Activity. The “Thermal Hyperalgesia (% Activity)” value ([3]; 120 min) was 33.36 ± 10.62 % Activity, the IC50 ([4]; low frequency stimulation 0.067 Hz (tonic block), read-out: IC50 @ 0.067 Hz) was 200 nM and the IC50 ([4]; pulse frequency 0.2 Hz (frequency dependent block), read-out: IC50 @ 0.2 Hz) was 150 nM.

In the case of `COCC(=O)O[C@]1(CCN(C)CCCc2nc3ccccc3[nH]2)CCc2cc(F)ccc2[C@@H]1C(C)C` [Mibefradil], the “selective for T-type over L-type channels” value [5] is given as 10-30 fold.
